# Reference: patent publication US11298337B2, “Parthenolide and its derivative for use in the treatment of axonal damage” (RUHR-UNIVERSITÄT BOCHUM, priority 2015, dated 2022)
# Assays:
# [1] = tested on: dissociated DRG neurons from adult wild type mice; experiment: Axon growth of dissociated adult DRG neurons in culture; conditions: adult wt DRG neurons, 2 days in culture
# Procedure: DRGs (T8-L6) were harvested, incubated in 0.25% trypsin/EDTA (GE Healthcare, Chalfont St Giles, UK) and 0.3% collagenase type IA (Sigma, St. Louis, US-Mo.) in DMEM (Life Technologies, Carlsbad, US-Calif.) at 37° C. and 5% CO2 for 45 min and mechanically dissociated. Cells were resuspended in DMEM containing 10% fetal bovine serum (GE Healthcare) penicillin/streptomycin (500 U/ml; Merck Millipore, Billerica, US-MA) and 5-fluoro-2′-desoxyuridine (100 nM; Sigma). Cells were cultured on poly-D-lysine (PDL, 0.1 mg/ml, molecular weight <300,000 kDa; Sigma) and laminin (20 μg/ml; Sigma) coated 96 well plates (Nunc, Germany) at 37° C. and 5% CO2.
# The effect of the tubulin carboxypeptidase (TCP) inhibitor parthenolide on axon growth of mature neurons was determined in dissociated DRG neurons from adult wild type mice as described above.
# DRGs (T8-L6) were harvested, incubated in 0.25% trypsin/EDTA (GE Healthcare, Chalfont St Giles, UK) and 0.3% collagenase type IA (Sigma, St. Louis, US-Mo.) in DMEM (Life Technologies, Carlsbad, US-Calif.) at 37° C. and 5% CO2 for 45 min and mechanically dissociated. […]
# Axonal growth was determined upon 48 h incubation by fixation in 4% PFA (Sigma) and immunocytochemical staining with antibodies against NeuN (1:2,000; Abcam, ab177487, Cambridge, UK) and βIII-tubulin (1:2,000; Covance, Princeton, US-N.J.). […]
# [2] = tested on: dissociated DRG neurons from adult wild type mice and GSK3α/GSK3β double knock-in mice; experiment: Axon growth of DRG neurons with SB216763 or nocodazole (modulation of microtubule dynamics); conditions: 2 days in culture
# Procedure: Dorsal root ganglion (DRG) neurons were isolated from adult wild type (wt) and GSK3α/GSK3β mice as described in Gobrecht et al., Nature communications. […] DRGs (T8-L6) were harvested, incubated in 0.25% trypsin/EDTA (GE Healthcare, Chalfont St Giles, UK) and 0.3% collagenase type IA (Sigma, St. Louis, US-Mo.) in DMEM (Life Technologies, Carlsbad, US-Calif.) at 37° C. and 5% CO2 for 45 min and mechanically dissociated. Cells were resuspended in DMEM containing 10% fetal bovine serum (GE Healthcare) penicillin/streptomycin (500 U/ml; Merck Millipore, Billerica, US-MA) and 5-fluoro-2′-desoxyuridine (100 nM; Sigma). Cells were cultured on poly-D-lysine (PDL, 0.1 mg/ml, molecular weight <300,000 kDa; Sigma) and laminin (20 μg/ml; Sigma) coated 96 well plates (Nunc, Germany) at 37° C. and 5% CO2.
compound,measurement,setting,value
"C=C(C(=O)O[C@H]1C/C(C)=C/CC/C(CO)=C/C2OC(=O)C(=C)[C@@H]21)C(O)CO (stereo in doubt) [cnicin, [(1R,2S,4E,8Z,10S)-8-(hydroxymethyl)-4-methyl-13-methylidene-12-oxo-11-oxabicyclo[8.3.0]trideca-4,8-dien-2-yl] (3S)-3,4-dihydroxy-2-methylidene-butanoate]",axon growth,"[1]; 0.1-100 nM, normalized to vehicle","significant, but less pronounced axon growth promotion"
same,concentration with strongest effects on axon growth,[1],0.5 nM
Cn1cc(C2=C(c3ccc(Cl)cc3Cl)C(=O)NC2=O)c2ccccc21 [SB216763],axon growth promoted by GSK3α^S/A/GSK3β^S/A,"[2]; 5 μM SB216763, double knock-in DRG neurons",efficiently blocked GSK3α^S/A/GSK3β^S/A promoted axon growth
COC(=O)Nc1nc2ccc(C(=O)c3cccs3)cc2[nH]1 [nocodazole],"axon growth, effect on GSK3α^S/A/GSK3β^S/A and parthenolide promoted growth","[2]; 10 nM nocodazole, alone or with 1 nM parthenolide",abrogated the beneficial effects of both GSK3α^S/A/GSK3β^S/A and parthenolide to similar extent
